Drawing on patent US20250268903A1, “RXFP1 AGONISTS” (BRISTOL-MYERS SQUIBB COMPANY, priority 2021, published 2025), this text covers EC50 for 16 molecules.

A word on the EC50: it is the concentration giving half of the maximal effect.

The target in this test is T1, human RXFP1 (Homo sapiens, UniProt Q9HBX9).
T1 construct: expressed in transfected cells
T1 sequence (Q9HBX9 1-757): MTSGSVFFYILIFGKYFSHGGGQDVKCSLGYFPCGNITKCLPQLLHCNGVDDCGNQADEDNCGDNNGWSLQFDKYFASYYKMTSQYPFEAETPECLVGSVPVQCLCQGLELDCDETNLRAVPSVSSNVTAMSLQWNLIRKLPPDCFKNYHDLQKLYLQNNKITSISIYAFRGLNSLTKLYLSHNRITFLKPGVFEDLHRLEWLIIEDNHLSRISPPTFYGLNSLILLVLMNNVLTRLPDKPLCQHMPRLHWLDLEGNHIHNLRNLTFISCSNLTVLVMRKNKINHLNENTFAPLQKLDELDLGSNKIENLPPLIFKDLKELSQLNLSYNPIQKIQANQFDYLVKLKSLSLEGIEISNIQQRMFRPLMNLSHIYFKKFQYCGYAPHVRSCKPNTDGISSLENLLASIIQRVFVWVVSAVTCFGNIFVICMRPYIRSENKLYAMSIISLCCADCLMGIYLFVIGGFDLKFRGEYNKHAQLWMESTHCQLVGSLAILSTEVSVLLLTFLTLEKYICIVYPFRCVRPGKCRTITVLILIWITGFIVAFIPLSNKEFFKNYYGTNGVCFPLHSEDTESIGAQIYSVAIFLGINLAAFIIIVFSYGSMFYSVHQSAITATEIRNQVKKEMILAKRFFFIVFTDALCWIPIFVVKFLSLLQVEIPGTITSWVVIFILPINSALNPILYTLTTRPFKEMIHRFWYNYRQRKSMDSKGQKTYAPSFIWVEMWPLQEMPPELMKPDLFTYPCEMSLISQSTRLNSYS
The test is described as follows: hRXFP1 HEK293 cAMP assay (HTRF). Format: cell-based. The following applies: HEK293 cells stably expressing human RXFP1, 30 min at room temperature. The procedure, abridged:
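HEK293 cells stably expressing human RXFP1 were suspended in HBSS (Ca/Mg) with 20 mM HEPES, 0.05% BSA and 0.5 mM IBMX, then treated with compounds (0.010 nM–50 μM, 2% DMSO final) for 30 min at room temperature. Intracellular cAMP was measured by HTRF, and potency was derived from 4-parameter logistic fits.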
A general note: cAMP levels reflect the balance of adenylyl cyclase and phosphodiesterase activity.

With `COc1ccc(C(=O)NCCCO)cc1C(=O)N[C@H]1[C@@H](C(=O)Nc2ccc(F)c(C(F)(F)F)c2)[C@H]2CC[C@@H]1/C2=C\C1CC1` [Example 229, N3-[(1R,2R,3S,4R,7Z)-7-(cyclopropyl-methylidene)-3-{[4-fluoro-3-(trifluoromethyl)phenyl]carbamoyl}bicyclo[2.2.1]heptan-2-yl]-N1-(3-hydroxypropyl)-4-methoxybenzene-1,3-dicarboxamide], the EC50 was found to be 183 nM.

`COc1ccc(COC2CCC(O)CC2)cc1C(=O)N[C@H]1[C@@H](C(=O)Nc2ccc(F)c(C(F)(F)F)c2)[C@H]2CC[C@@H]1/C2=C\C1CC1` (stereo partly drawn) [Example 290, (1R,2S,3R,4R,7Z)-7-(cyclopropyl-methylidene)-N-[4-fluoro-3-(trifluoromethyl)phenyl]-3-(5-{[(4-hydroxycyclohexyl)oxy]methyl}-2-methoxybenzamido) bicyclo[2.2.1]heptane-2-carboxamide] yielded an EC50 of 76.6 nM.

`COc1c(F)cc(C(=O)NCC2(S(C)(=O)=O)CC2)cc1C(=O)N[C@H]1[C@@H](C(=O)Nc2ccc(F)c(C(F)(F)F)c2)[C@H]2CC[C@@H]1/C2=C\C1CC1` [Example 366, N3-[(1R,2R,3S,4R,7Z)-7-(cyclopropyl-methylidene)-3-{[4-fluoro 3-(trifluoromethyl)phenyl]carbamoyl}bicyclo[2.2.1]heptan-2-yl]-5-fluoro-N1-[(1-methanesulfonyl-cyclopropyl)methyl]-4-methoxybenzene-1,3-dicarboxamide] came in with an EC50 of 3.1 nM.

Molecule `COc1ccc(C2CC(CO)C2)cc1C(=O)N[C@H]1[C@@H](C(=O)Nc2ccc(F)c(C(F)(F)F)c2)[C@H]2CC[C@@H]1/C2=C\C1CC1` (stereo partly drawn) [Example 333, (1R,2S,3R,4R,7Z)-7-(cyclopropyl-methylidene)-N-[4-fluoro-3-(trifluoromethyl)phenyl]-3-[5-[3-(hydroxymethyl)cyclobutyl]-2-methoxybenzamido} bicyclo[2.2.1]heptane-2-carboxamide] yielded an EC50 of 62.3 nM.

`COc1ccc(CCCCCOC(=O)NC2CCC2)cc1C(=O)N[C@@H]1C2CCC(/C2=C/C(F)(F)F)[C@@H]1C(=O)Nc1ccc(F)c(C(F)(F)F)c1` (stereo partly drawn) [Example 103, 5-(3-{[(2R,3S,7Z)-3-{[4-fluoro-3-(trifluoromethyl)phe-nyl]carbamoyl}-7-(2,2,2-trifluoroethylidene)bi-cyclo[2.2.1]heptan-2-yl]carbamoyl}-4-methoxyphenyl)pent-yl N-cyclobutylcarbamate] gave an EC50 of 725 nM.

In turn, `COc1ccc(C(=O)N2C3CCC2COC3)cc1C(=O)N[C@H]1[C@@H](C(=O)Nc2ccc(F)c(C(F)(F)F)c2)[C@H]2CC[C@@H]1/C2=C\C1CC1` [Example 258, (1R,2S,3R, 4R,7Z)-7-(cyclopropyl-methylidene)-N-[4-fluoro-3-(trifluoromethyl)phenyl]-3-(2-methoxy-5-{3-oxa-8-azabicyclo [3.2.1]octane-8-carbonyl}benzamido) bicyclo[2.2.1] heptane-2-carboxamide] returned an EC50 of 32.9 nM.

`COC/C=C/c1ccc(OC)c(C(=O)N[C@@H]2C3CCC(C3=C(C)C)[C@@H]2C(=O)Nc2ccc(F)c(C(F)(F)F)c2)c1` (stereo partly drawn) [Example 31, (2S,3R)—N-[4-fluoro-3-(trifluoromethyl)phenyl]-3-{2-methoxy-5-[(1E)-3-methoxyprop-1-en-1-yl]benzamido}-7-(propan-2-ylidene) bicyclo[2.2.1]heptane-2-carboxamide]: the midpoint of the response, the EC50, lay at 180 nM.

In turn, `COc1ccc(C(=O)N2CCC(O)CC2)cc1C(=O)N[C@H]1[C@@H](C(=O)Nc2ccc(F)c(C(F)(F)F)c2)[C@H]2CC[C@@H]1/C2=C\C1CC1` [Example 230, (1R,2S,3R,4R,7Z)-7-(cyclopropyl-methylidene)-N-[4-fluoro-3-(trifluoromethyl)phenyl]-3-[5-(4-hydroxypiperidine-1-carbonyl)-2-methoxybenzamido] bicyclo[2.2.1] heptane-2-carboxamide] yielded an EC50 of 26 nM.

For the molecule `COc1ccc(/C=C/C(=O)N(C)CCO)cc1C(=O)N[C@@H]1C2CCC(/C2=C/C(F)(F)F)[C@@H]1C(=O)Nc1ccc(F)c(C(F)(F)F)c1` (stereo partly drawn) [Example 126, (2S,3R,7Z)-N-[4-fluoro-3-(trifluoromethyl)phe-nyl]-3-{5-[(1E)-2-[(2-hydroxyethyl)(meth-yl)carbamoyl]eth-1-en-1-yl]-2-methoxybenzamido}-7-(2,2,2-trifluoroethylidene)bi-cyclo[2.2.1]heptane-2-carboxamide], the EC50 amounted to 35 nM.

With `COc1ccc(C2CCCCC2O)cc1C(=O)N[C@@H]1C2CCC(/C2=C/C(F)(F)F)[C@@H]1C(=O)Nc1ccc(F)c(C(F)(F)F)c1` (single isomer, unassigned) [Example 57], the response was half-maximal at 1440 nM (EC50). This EC50 lies about 41-fold higher than the previous one.

The molecule `COc1ccc(CCCNC[C@@H](O)C(F)(F)F)cc1C(=O)N[C@@H]1C2CCC(/C2=C/C(F)(F)F)[C@@H]1C(=O)Nc1ccc(F)c(C(F)(F)F)c1` (stereo partly drawn) [Example 119, (2S,3R,7Z)-N-[4-fluoro-3-(trifluoromethyl)phe-nyl]-3-[2-methoxy-5-(3-{[(2R)-3,3,3-trifluoro-2-hydroxypropyl]amino}propyl)benzamido]-7-(2,2,2-trifluoroethylidene)bi-cyclo[2.2.1]heptane-2-carboxamide] showed an EC50 of 1800 nM.

`COc1ccc(C2CC2CO)cc1C(=O)N[C@@H]1C2CCC(/C2=C/C(F)(F)F)[C@@H]1C(=O)Nc1ccc(F)c(C(F)(F)F)c1` (single isomer, unassigned) [Example 64] registered an EC50 of 252 nM.

With `COc1ccc([C@H]2C[C@H](O)C2)cc1C(=O)NC1C2CCC(/C2=C/C2CC2)[C@@H]1C(=O)Nc1ccc(F)c(C(F)(F)F)c1` (stereo partly drawn) [Example 148, (2S,3R,7Z)-7-(cyclopropylmethyli-dene)-N-[4-fluoro-3-(trifluoromethyl)phe-nyl]-3-{2-methoxy-5-[(1r,3r)-3-hydroxycyclobutyl]benzamido}bicyclo [2.2.1]heptane-2-carboxamide], the EC50 is 6 nM.

`COc1ccc(COC2=NOC3COCC23)cc1C(=O)N[C@H]1[C@@H](C(=O)Nc2ccc(F)c(C(F)(F)F)c2)[C@H]2CC[C@@H]1/C2=C\C1CC1` (stereo partly drawn) [Example 300, (1R,2S,3R,4R,7Z)-3-[5-({3aH,4H,6H,6aH-furo[3,4-d][1,2]oxazol-3-yloxy}methyl)-2-methoxybenzamido]-7-(cyclopropylmethylidene)-N-[4-fluoro-3-(trifluoromethyl)phenyl]bicyclo[2.2.1] heptane-2-carboxamide] returned an EC50 of 206 nM. This EC50 is about 34-fold higher than that of the molecule before.

As to `O=C(N[C@@H]1C2CCC(/C2=C/C(F)(F)F)[C@@H]1C(=O)Nc1ccc(F)c(C(F)(F)F)c1)c1cc(CCCO)ccc1OCCO` (stereo partly drawn) [Example 107, (2S,3R,7Z)-N-[4-fluoro-3-(trifluoromethyl)phe-nyl]-3-[2-(2-hydroxyethoxy)-5-(3-hydroxypropyl)benz-amido]-7-(2,2,2-trifluoroethylidene)bi-cyclo[2.2.1]heptane-2-carboxamide], it took 815 nM to reach a half-maximal effect (EC50).

Molecule `CCOC(=O)/C(C)=C/c1ccc(OC)c(C(=O)N[C@H]2[C@@H](C(=O)Nc3ccc(F)c(C(F)(F)F)c3)[C@H]3CC[C@@H]2/C3=C\C(F)(F)F)c1` [Example 305, ethyl (2E)-3-(3-{[(1R,2R,3S,4R,7Z)-3-{[4-fluoro-3-(trifluoromethyl)phenyl]carbamoyl}-7-(2,2,2-trifluoroethylidene)bicyclo[2.2.1]heptan-2-yl]carbamoyl}-4-methoxyphenyl)-2-methylprop-2-enoate] showed an EC50 of 744 nM.
